Where “and” joins values, the source holds several entries; their conditions need not be identical. Equal values may be shown once. Toxic doses and inconclusive results are not listed. How the source made its calls: active means survival T/C of 150% or more; inactive means T/C below 125% in these data.
System: P388 leukemia ip, CD2F1 mice, survival T/C
Assay: NCI In Vivo Anticancer Drug Screen. Data for tumor model P388 Leukemia (intraperitoneal) in CD2F1 (CDF1) mice
Details: endpoint: median survival time, higher = longer survival
Summary of the method: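 Mice carrying the transplanted tumor received test compound or vehicle. Survival was recorded in each group, and the value is the treated-group measurement divided by that of the vehicle-treated control group.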

[1] = dose: 50.0 mg/kg/injection, schedule: Q04DX003 (ip), vehicle: saline
[2] = dose: 50.0 mg/kg/injection, schedule: Q01DX005 (ip), vehicle: saline with Tween-80
[3] = dose: 100.0 mg/kg/injection, schedule: Q01DX005 (ip), vehicle: saline with Tween-80
[4] = dose: 200.0 mg/kg/injection, schedule: Q01DX005 (ip), vehicle: saline with Tween-80
[5] = dose: 12.5 mg/kg/injection, schedule: Q01DX005 (ip), vehicle: saline with Tween-80
[6] = dose: 25.0 mg/kg/injection, schedule: Q01DX005 (ip), vehicle: saline with Tween-80
[7] = dose: 60.0 mg/kg/injection, schedule: Q01DX005 (ip), vehicle: saline with Tween-80
[8] = dose: 120.0 mg/kg/injection, schedule: Q01DX005 (ip), vehicle: saline with Tween-80
[9] = dose: 240.0 mg/kg/injection, schedule: Q01DX005 (ip), vehicle: saline with Tween-80
[10] = dose: 25.0 mg/kg/injection, schedule: Q04DX002 (ip), vehicle: saline with Tween-80

Measured: T/C

COc1cc2c(cc1OC(C)=O)C(=O)CCC=C2
inactive: dose: 33.0 mg/kg/injection, schedule: Q04DX003 (ip), vehicle: saline 100 % of control | [1] 104 % of control | dose: 75.0 mg/kg/injection, schedule: Q04DX003 (ip), vehicle: saline 112 % of control | dose: 400.0 mg/kg/injection, schedule: Q04DX003 (ip), vehicle: saline 120 % of control

COc1ccc(-c2nc3[nH]c(=S)[nH]c(=O)c3nc2-c2ccc(OC)c(OC)c2)cc1OC
inactive: dose: 100.0 mg/kg/injection, schedule: Q01DX001 (ip), vehicle: Klucel (hydroxypropylcellulose) (HPC) 103 % of control | dose: 200.0 mg/kg/injection, schedule: Q01DX001 (ip), vehicle: Klucel (hydroxypropylcellulose) (HPC) 105 % of control | dose: 400.0 mg/kg/injection, schedule: Q01DX001 (ip), vehicle: Klucel (hydroxypropylcellulose) (HPC) 90 % of control

O=C(O)C1CN(C(=O)OCC2c3ccccc3-c3ccccc32)CS1 (stereo unspecified)
inactive: [2] 94 % of control | [3] 94 % of control | [4] 92 % of control

CCCCCCCCCCCC(=O)CCCC
inactive: dose: 100.0 mg/kg/injection, schedule: Q04DX003 (ip), vehicle: other 104 % of control | dose: 200.0 mg/kg/injection, schedule: Q04DX003 (ip), vehicle: other 113 % of control | dose: 400.0 mg/kg/injection, schedule: Q04DX003 (ip), vehicle: other 118 % of control

N#CC(OC(=O)c1ccccc1)C(OC(=O)c1ccccc1)C(OC(=O)c1ccccc1)C(COC(=O)c1ccccc1)OC(=O)c1ccccc1 (stereo unspecified)
inactive: dose: 6.25 mg/kg/injection, schedule: Q01DX005 (ip), vehicle: saline with Tween-80 97 % of control | [5] 95 % of control | [6] 86 % of control

Cc1nc2ccc(N(C)C)cc2c2c1Cc1c(C)nc3ccc(N(C)C)cc3c1O2
inactive: [7] 88 % of control | [8] 88 % of control | [9] 94 % of control

NNC12CCC(c3ccccc31)c1ccccc12
inactive: dose: 50.0 mg/kg/injection, schedule: Q04DX003 (ip), vehicle: saline with Tween-80 95 % of control | dose: 100.0 mg/kg/injection, schedule: Q04DX003 (ip), vehicle: saline with Tween-80 110 % of control | dose: 200.0 mg/kg/injection, schedule: Q04DX003 (ip), vehicle: saline with Tween-80 110 % of control

O=S(=O)(/N=C1/C=CC=CC1=C(N1CCOCC1)N1CCOCC1)c1ccccc1
inactive: [1] 104 % of control | dose: 100.0 mg/kg/injection, schedule: Q04DX003 (ip), vehicle: saline 111 % of control | dose: 200.0 mg/kg/injection, schedule: Q04DX003 (ip), vehicle: saline 105 % of control

O=c1[nH]c(=S)[nH]nc1/C=C/C=C/c1ccccc1
inactive: dose: 100.0 mg/kg/injection, schedule: Q01DX001 (ip), vehicle: saline 96 % of control | dose: 200.0 mg/kg/injection, schedule: Q01DX001 (ip), vehicle: saline 97 % of control | dose: 400.0 mg/kg/injection, schedule: Q01DX001 (ip), vehicle: saline 105 % of control

COC(=O)C1c2cc3c(c(O)c2C(OC2OC(C)C(OC)C(C)(OC)C2OC)CC1(C)O)C(=O)c1c(O)cc2c(c1C3=O)OC1OC2(C)C(O)C(N(C)C=O)C1O (stereo unspecified)
inactive: dose: 1.56 mg/kg/injection, schedule: Q04DX003 (ip), vehicle: other 100 % of control | dose: 3.12 mg/kg/injection, schedule: Q04DX003 (ip), vehicle: other 96 % of control | dose: 6.25 mg/kg/injection, schedule: Q04DX003 (ip), vehicle: other 100 % of control | dose: 12.5 mg/kg/injection, schedule: Q04DX003 (ip), vehicle: other 110 % of control | dose: 25.0 mg/kg/injection, schedule: Q04DX003 (ip), vehicle: other 112 % of control

CC1NC(=O)NC(=O)C1(Cl)Cl (stereo unspecified)
inactive: dose: 50.0 mg/kg/injection, schedule: Q01DX009 (ip), vehicle: saline 101 % of control | dose: 100.0 mg/kg/injection, schedule: Q01DX009 (ip), vehicle: saline 99 % of control and 109 % of control | dose: 200.0 mg/kg/injection, schedule: Q01DX009 (ip), vehicle: saline 100 % of control and 109 % of control

C#CC(C(C)C)N(CCO)CCCC (stereo unspecified)
inactive: [7] 105 % of control | [8] 104 % of control | [9] 102 % of control

CCCCCCC(O)Cc1cc(-c2ccccc2)nc(=O)[nH]1 (stereo unspecified)
inactive: dose: 15.0 mg/kg/injection, schedule: Q01DX005 (ip), vehicle: saline with Tween-80 97 % of control | [7] 87 % of control | [9] 95 % of control

O=C1c2ccccc2C(=O)c2cc3c(cc21)OCO3
inactive: dose: 60.0 mg/kg/injection, schedule: Q01DX005 (ip), vehicle: Klucel (hydroxypropylcellulose) (HPC) 88 % of control | dose: 120.0 mg/kg/injection, schedule: Q01DX005 (ip), vehicle: Klucel (hydroxypropylcellulose) (HPC) 89 % of control

O=C1NC(=O)C2CCC12 (stereo unspecified)
inactive: dose: 50.0 mg/kg/injection, schedule: Q01DX009 (ip), vehicle: saline with Tween-80 100 % of control | dose: 100.0 mg/kg/injection, schedule: Q01DX009 (ip), vehicle: saline with Tween-80 100 % of control | dose: 200.0 mg/kg/injection, schedule: Q01DX009 (ip), vehicle: saline with Tween-80 100 % of control

CN1CCN(CCCO)CC1
inactive: dose: 50.0 mg/kg/injection, schedule: Q01DX005 (ip), vehicle: saline 105 % of control | dose: 100.0 mg/kg/injection, schedule: Q01DX005 (ip), vehicle: saline 97 % of control | dose: 200.0 mg/kg/injection, schedule: Q01DX005 (ip), vehicle: saline 104 % of control

Cc1c2ccncc2c(CNC(=O)CCC(=O)NCc2c3cnccc3c(C)c3c2c2ccccc2n3C)c2c3ccccc3n(C)c12
inactive: dose: 6.25 mg/kg/injection, schedule: Q04DX002 (ip), vehicle: saline with Tween-80 108 % of control | dose: 12.5 mg/kg/injection, schedule: Q04DX002 (ip), vehicle: saline with Tween-80 103 % of control | [10] 102 % of control | dose: 50.0 mg/kg/injection, schedule: Q04DX002 (ip), vehicle: saline with Tween-80 102 % of control

Cc1cc2c(cc1C)-c1nn(-c3ccccc3)c(-c3ccc(Cl)cc3)c1CCO2
inactive: [5] 92 % of control | [6] 99 % of control | [2] 93 % of control and 94 % of control

COC(=O)c1cc([O-])c2sc(C)c(C)[n+]2n1
inactive: [7] 100 % of control | [8] 100 % of control | [9] 100 % of control

CCCCN(CCCC)S(=O)(=O)N1CCCCC1
inactive: dose: 50.0 mg/kg/injection, schedule: Q04DX002 (ip), vehicle: saline 105 % of control | dose: 100.0 mg/kg/injection, schedule: Q04DX002 (ip), vehicle: saline 98 % of control | dose: 200.0 mg/kg/injection, schedule: Q04DX002 (ip), vehicle: saline 96 % of control | dose: 400.0 mg/kg/injection, schedule: Q04DX002 (ip), vehicle: saline 100 % of control

CN1c2cccc[c]2[Sn]([CH3])([CH3])[c]2ccccc21
inactive: dose: 30.0 mg/kg/injection, schedule: Q01DX005 (ip), vehicle: saline with Tween-80 115 % of control | [7] 113 % of control and 123 % of control | [8] 124 % of control

CC(C)CC(NC(=O)CNC(=O)/C=C/c1ccco1)C(N)=O (stereo unspecified)
inactive: [2] 106 % of control | [3] 102 % of control | [4] 90 % of control

CCC/C(=N\N=C(N)N)c1ccc(Cl)cc1
inactive: [10] 100 % of control

CCOc1ccccc1C1N(C)CCCN1C
inactive: dose: 6.25 mg/kg/injection, schedule: Q01DX009 (ip), vehicle: saline sonified 90 % of control | dose: 12.5 mg/kg/injection, schedule: Q01DX009 (ip), vehicle: saline sonified 95 % of control | dose: 25.0 mg/kg/injection, schedule: Q01DX009 (ip), vehicle: saline sonified 86 % of control

CSc1nc(C)c(C(=O)CCN2CCN(c3ccccn3)CC2)s1
inactive: dose: 60.0 mg/kg/injection, schedule: Q01DX005 (ip), vehicle: saline 104 % of control | dose: 120.0 mg/kg/injection, schedule: Q01DX005 (ip), vehicle: saline 113 % of control
